# From patent US20190380941A1, “COMPOSITION COMPRISING A TRUFFLE EXTRACT AND NEOHESPERIDIN DIHYDROCHALCONE” (L'OREAL, priority 2016, published 2019)
# Tested on: filaggrin
# Test: Filaggrin expression in normal human keratinocytes (NHEK), in-situ immunolabelling
# Format: cell-based
# Conditions: 72 hours incubation; for Mean filaggrin (AU): fluorescence intensity relative to number of cells, control 12261; for Mean filaggrin (AU) / % relative to the control (filaggrin): truffle extracts 4.5·10^−3% by weight of active material, Neohesperidin DHC 0.3 mg/ml, CaCl2 1.5 mM; for increase of filaggrin protein expression relative to the control: same concentrations as in the table, change versus control; for % relative to the control (filaggrin): control = 100
# Excerpt: The in vitro effect of the combination of neohesperidin dihydrochalcone (neohesperidin DHC) and an extract of black (Périgord) truffle (Tuber melanosporum) and/or an extract of white (summer) truffle (Tuber aestivum) on keratinocyte differentiation is studied. The expression and the location of the marker of filaggrin differentiation are especially studied in keratinocytes in culture which thus makes it possible to evaluate the ability of these combinations to increase the differentiation of these cells. The culture medium is: Keratinocyte-SFM supplemented with: • 0.25 ng/ml Epidermal Growth Factor (EGF); • 25 μg/ml pituitary extract (PE); • 25 μg/ml Gentamicin; The test medium is Keratinocyte-SFM supplemented with 25 μg/ml Gentamicin. The keratinocytes were seeded into 96-well plates and cultured in culture medium for 168 hours with renewal of the culture medium after 24 and 96 hours of incubation. […] All the experimental conditions were carried out in n=3, except the control condition which was carried out in n=6. After incubation, the medium was eliminated and the cells were rinsed, fixed and permeabilized. The cells were then labelled with the primary antibody (see Table A) directed against the protein of interest (filaggrin). […] At the same time, the nuclei of the cells were stained with Hoechst 33258 (bisbenzimide). [table] The image acquisition was carried out with an INCellAnalyzer™ 1000 (GE Healthcare) high-resolution imaging system. For each well, 10 digitized images were captured for each immunolabelling (×20 objective).
compound,measurement,value
"[Ca+2].[Cl-].[Cl-] [CaCl2, calcium chloride]",Mean filaggrin (AU),74795 AU
same,increase of filaggrin protein expression relative to the control,+510%
same,% relative to the control (filaggrin),610%
"COc1ccc(CCC(=O)c2c(O)cc(O[C@@H]3O[C@H](CO)[C@@H](O)[C@H](O)[C@H]3O[C@@H]3O[C@@H](C)[C@H](O)[C@@H](O)[C@H]3O)cc2O)cc1O [Neohesperidin DHC, 1-(4-((2-O-[6-Deoxy-α-L-mannopyranosyl]-β-D-glucopyranosyl)oxy)-2,6-dihydroxyphenyl)-3-[3-hydroxy-4-methoxyphenyl]-1-propanone]",Mean filaggrin (AU),18840 AU
same,increase of filaggrin protein expression relative to the control,+54%
same,% relative to the control (filaggrin),154%
